In general, half-life refers to the time in which the quantity being followed falls by half. A high value points to slow loss.

The values below come from patent US9127038B2, “Kisspeptide-pentasaccharide conjugates” (Merck Sharp & Dohme Corp., priority 2011, dated 2015).

Data set [1] can be described thus: In vitro stability in human serum (LC/MS/MS). The conditions noted are these: for half-life at 750 nM: human.
Description: Test compound is added to 1.5 mL human serum in a 96-wells deepwell plate in a final concentration of 750 nM. The compound is mixed and immediately thereafter a 100 μl sample is harvested in a 96-wells 2D-tuberack (T=0 sample). The 2 D-tubes are closed with rubber tube caps and the sample plate is stored at −20° CF. in the freezer. The deepwell plate is put into an incubator which was set at humidified (95%) atmosphere at 5-7% CO2 and 37° C. for an incubation period of maximum 240 h. During this incubation period, samples of 100 μl are collected on various time intervals, dependent on the test compound used; time points 0, 1, 2, 3, 6, 24, 48, 72 h in case of Kisspeptides and 0, 3, 6, 24, 48, 72, 168, 240 h in case of kisspeptide-pentasaccharide conjugates. Sample plates are put on ice in case of sampling and stored at −20° C. until analysis by LC/MS/MS.
For LC-MS/MS analysis, the compounds are separated over an XTerra RP8 column and using a gradient mobile phase of ammonium acetate buffer and acetonitrile at a fixed column temperature. MS/MS detection is done with a triple quadrupole mass spectrometer and employing negative ion electrospray ionization. The mass spectrometer is set up to achieve a known degree of in source fragmentation, where the initially formed multiply charged negative ions lose one or more SO3 molecules. The most abundant of these secondary ions are then subjected to a common MS/MS experiment in which a single SO3 loss is monitored. The Q1 and Q3 mass filter settings for this MS/MS experiment have commonly been determined in method development. […] Internal standardization is accomplished by adding a different conjugate of approximately the same size to the bioanalytical samples.
The rate of compound loss is expressed as a half-life (plasma t^1/2). The t^1/2 for the test compound can be determined by plotting the natural logarithm (In) of the measured concentrations against time and fitting the line through all data points. The gradient of this line is the first order rate constant (k) for substrate disappearance and is determined by regression analysis. The rate constant is converted to a half-life according to the following equation: In vitro half-life(t^1/2)=−ln 2/k
The next data set addresses T1, human KISS-receptor (Homo sapiens, UniProt Q969F8).
T1 construct: expressed in transfected cells; host or cells: CHO-k1 cells that also express mitochondrially targeted aequorin, Gα16 and an NFAT-luciferase reporter
Description: NFAT-regulated luciferase reporter gene assay in CHO-k1 cells, agonist activity. Type of data set: cell-based. Background: In a reporter assay the amount or activity of a reporter protein is the signal.

Where [2] appears, read: absence of human serum, read-out: pEC50 (converted).
[3] abbreviates: presence of 20% human serum, read-out: pEC50 serum (converted).

SMILES strings stand for the structures. Read-outs that look alike come from different tables or passages of the source. Square brackets hold non-standard residues; d marks the D form. Peptide text beside a SMILES is read from it. Arg(Me) = CNC(=N)NCCC[C@H](N)C(=O)O; azaGly = NNC(=O)O Bounds are passed on as bounds.

T1 sequence (Q969F8 whole entry): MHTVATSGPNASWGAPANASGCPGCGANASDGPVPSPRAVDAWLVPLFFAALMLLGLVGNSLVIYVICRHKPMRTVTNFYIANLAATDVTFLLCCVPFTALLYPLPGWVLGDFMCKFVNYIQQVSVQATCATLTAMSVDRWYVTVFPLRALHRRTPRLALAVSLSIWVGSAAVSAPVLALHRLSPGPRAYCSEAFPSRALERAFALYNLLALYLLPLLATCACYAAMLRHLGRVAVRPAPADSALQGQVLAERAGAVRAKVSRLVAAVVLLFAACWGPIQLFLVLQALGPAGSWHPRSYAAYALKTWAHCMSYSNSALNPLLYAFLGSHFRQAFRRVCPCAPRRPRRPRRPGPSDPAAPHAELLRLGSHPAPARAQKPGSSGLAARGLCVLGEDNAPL
Description for human KISS-receptor: CHO-k1 cells were used that expressed the mitochondrially targeted aequorine and Gα16 (from Euroscreen, Brussels, Belgium), a Nuclear Factor of Activated T-cells-responsive element (NFAT) under the control of a promoter directing the expression of a firefly luciferase reporter gene (pNFAT-TALuc obtained from Clontech, Mountain View, Calif.), and the human GPR54-R Hygro(+)-hGPR54WT c4; MSD). These cells were cultured in Dulbecco's Modified Eagle Medium: Nutrient Mixture F-12 (DMEM/F12) (Invitrogen, Carlsbad, Calif.), supplemented with 10% (vol/vol) filtered bovine serum (Hyclone, Thermo Fisher Scientific, Waltham, Mass.), 100 U/ml penicillin G, 100 μg/ml streptomycin, 400 μg/ml Geneticin and 400 μg/ml Hygromycin (Invitrogen). […] Kisspeptin-10 was used as a standard. […] When the conjugates were tested in the presence of a final percentage of 20% human serum, 10 μl assay medium containing 60% human serum (Sigma-Aldrich, #H4522) was added to the wells. In the absence of human serum, 10 μl of assay medium was added. Cells were harvested and diluted to a concentration of 7.5E5 cells/ml in assay medium without 0.1% BSA. 10 μl of cell solution was added to the compound wells. After incubation for 4 hours in a humidified atmosphere at 5% CO2 and 37° C., the plate was left at room temperature for 30 minutes. Subsequently, 15 μl of Steadylite™ solution (PerkinElmer, Boston, Mass.) was added and the cells, protected from light, were allowed to lyse for 30 min at room temperature. Luminescence, indicated as relative luminescence units (RLU), was measured on an Envision Multilabel reader (PerkinElmer).

In data set [1], `CNC(=N)NCCC[C@H](NC(=O)[C@H](CC(C)C)NC(=O)NNC(=O)[C@H](Cc1ccccc1)NC(=O)[C@@H](NC(=O)[C@H](CC(N)=O)NC(=O)[C@H](Cc1c[nH]c2ccccc12)NC(=O)[C@H](CC(N)=O)NC(=O)[C@@H](Cc1ccc(O)cc1)NC(=O)CCOCCOCCOCCOCCn1cc(CCC(=O)NCCOCCOCCOCCO[C@H]2[C@H](OC)[C@@H](OC)[C@@H](O[C@H]3[C@H](OC)[C@@H](OC)[C@H](O[C@H]4[C@H](OS(=O)(=O)O)[C@@H](OS(=O)(=O)O)[C@@H](O[C@H]5[C@H](OC)[C@@H](OC)[C@H](O[C@H]6[C@H](OC)[C@@H](OS(=O)(=O)O)[C@@H](OC)O[C@@H]6COS(=O)(=O)O)O[C@H]5C(=O)O)O[C@@H]4COS(=O)(=O)O)O[C@@H]3C(=O)O)O[C@@H]2COS(=O)(=O)O)nn1)[C@@H](C)O)C(=O)N[C@@H](Cc1ccccc1)C(N)=O` [Conjugate C10] showed a half-life at 750 nM of 121 h. Besides, the EC50 at human KISS-receptor (setting [2]) is 0.123 nM; at human KISS-receptor (setting [3]), 0.525 nM.
In data set [1], `CNC(=N)NCCC[C@H](NC(=O)[C@H](CC(C)C)NC(=O)NNC(=O)[C@H](Cc1ccccc1)NC(=O)[C@@H](NC(=O)[C@H](CC(N)=O)NC(=O)[C@H](Cc1c[nH]c2ccccc12)NC(=O)[C@H](CC(N)=O)NC(=O)[C@H](N)Cc1ccc(O)cc1)[C@@H](C)O)C(=O)N[C@@H](Cc1ccccc1)C(N)=O` [Conjugate P29, reference compound] (H-[dY]NWNTF[azaGly]L[Arg(Me)]F-NH2) gave a half-life at 750 nM of 5.4 h. Moreover, the “stability (in words)” value in data set [1] (in words) was “not sufficiently stable”. The EC50 was 0.1 nM at human KISS-receptor (setting [2]) and 0.0501 nM at human KISS-receptor (setting [3]).
In the case of `CNC(=N)NCCC[C@H](NC(=O)[C@H](CC(C)C)NC(=O)NNC(=O)[C@H](Cc1ccccc1)NC(=O)[C@@H](NC(=O)[C@H](CC(N)=O)NC(=O)[C@@H]1C[C@@H](O)CN1C(=O)[C@@H](Cc1ccc(O)cc1)NC(=O)CCOCCOCCOCCOCCn1cc(CCC(=O)NCCOCCOCCOCCO[C@H]2[C@H](OC)[C@@H](OC)[C@@H](O[C@H]3[C@H](OC)[C@@H](OC)[C@H](O[C@H]4[C@H](OS(=O)(=O)O)[C@@H](OS(=O)(=O)O)[C@@H](O[C@H]5[C@H](OC)[C@@H](OC)[C@H](O[C@H]6[C@H](OS(=O)(=O)O)[C@@H](OS(=O)(=O)O)[C@@H](OC)O[C@@H]6COS(=O)(=O)O)O[C@H]5C(=O)O)O[C@@H]4COS(=O)(=O)O)O[C@@H]3C(=O)O)O[C@@H]2COS(=O)(=O)O)nn1)[C@@H](C)O)C(=O)N[C@@H](Cc1c[nH]c2ccccc12)C(N)=O` [Conjugate C35], the half-life at 750 nM in data set [1] was greater than 240 h. Also, the figures for the EC50 on human KISS-receptor (setting [2]) and on human KISS-receptor (setting [3]) were 0.0427 nM and 1.38 nM, respectively.
In data set [1], `CNC(=N)NCCC[C@H](NC(=O)[C@H](CC(C)C)NC(=O)CNC(=O)[C@H](Cc1ccccc1)NC(=O)[C@@H](NC(=O)[C@H](CC(N)=O)NC(=O)[C@@H]1C[C@@H](O)CN1C(=O)[C@H](CC(N)=O)NC(=O)[C@H](Cc1ccc(O)cc1)NC(=O)CCOCCOCCOCCOCCn1cc(CCC(=O)NCCOCCOCCOCCO[C@H]2[C@H](OC)[C@@H](OC)[C@@H](O[C@H]3[C@H](OC)[C@@H](OC)[C@H](O[C@H]4[C@H](OS(=O)(=O)O)[C@@H](OS(=O)(=O)O)[C@@H](O[C@H]5[C@H](OC)[C@@H](OC)[C@H](O[C@H]6[C@H](OC)[C@@H](OS(=O)(=O)O)[C@@H](OC)O[C@@H]6COS(=O)(=O)O)O[C@H]5C(=O)O)O[C@@H]4COS(=O)(=O)O)O[C@@H]3C(=O)O)O[C@@H]2COS(=O)(=O)O)nn1)[C@@H](C)O)C(=O)N[C@@H](Cc1ccccc1)C(N)=O` [Conjugate C25] showed a half-life at 750 nM of 188 h. Further, the EC50 on human KISS-receptor (setting [2]) was 0.372 nM; at human KISS-receptor (setting [3]) it was 1.02 nM.
